Results reported in ChEMBL document CHEMBL4422677, “Prenylated Diresorcinols Inhibit Bacterial Quorum Sensing” (J Nat Prod, 2019).
Active and inactive are the calls of the source. The rule behind the calls is not given here.

Key:
[1] = Inhibition of Staphylococcus aureus USA300 LAC quorum sensing system Agr assessed as reduction in AIP production measured after 5 hrs by UPLC-MS analysis; parameters: species or system Staphylococcus aureus subsp. aureus USA300
[2] = test system: Staphylococcus aureus subsp. aureus USA300; test: Inhibition of Staphylococcus aureus USA300 LAC quorum sensing system Agr assessed as reduction in hla transcription at 2.9 to 16 uM after 5 hrs by RNA protect cell reagent based qRT-PCR analysis
[3] = target: T1, Accessory gene regulator protein A (Staphylococcus aureus) (UniProt P0A0I7); test: Inhibition of Staphylococcus aureus USA300 LAC quorum sensing system AgrA assessed as reduction in RNA3 transcription at 9 to 16 uM after 5 hrs by RNA protect cell reagent based qRT-PCR analysis; conditions: Staphylococcus aureus subsp. aureus USA300
T1 sequence (whole entry): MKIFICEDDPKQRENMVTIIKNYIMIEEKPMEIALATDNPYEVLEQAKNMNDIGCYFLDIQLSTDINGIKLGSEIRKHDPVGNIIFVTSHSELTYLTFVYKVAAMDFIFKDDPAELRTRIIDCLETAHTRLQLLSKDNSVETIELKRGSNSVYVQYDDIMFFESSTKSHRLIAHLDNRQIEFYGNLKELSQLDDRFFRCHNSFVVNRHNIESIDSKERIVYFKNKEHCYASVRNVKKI

[4] = target: T1, Accessory gene regulator protein A (Staphylococcus aureus); test: Inhibition of Staphylococcus aureus USA300 LAC quorum sensing system AgrA assessed as reduction in psma transcription at 2.9 to 16 uM after 5 hrs by RNA protect cell reagent based qRT-PCR analysis; conditions: Staphylococcus aureus subsp. aureus USA300
[5] = test system: Staphylococcus aureus; test: Effect on growth of Staphylococcus aureus USA300 LAC measured at 1 hr interval for 5 hrs

| IC50 [1] | inhibition [2] | inhibition [3] | inhibition [4] | Compound | Activity [5] |
| --- | --- | --- | --- | --- | --- |
| 4.6 µM |  |  |  | CC(C)=CCc1c(O)cc(C)cc1Oc1cc(C)c(C(=O)O)c(O)c1 |  |
| 6.3 to 12.5 µM |  |  |  | O=C1c2cc(O)cc(O)c2C(=O)c2c(O)cc(CO)cc21 |  |

More lines, now with the values behind:

| Compound | IC50 [1] | inhibition [2] | inhibition [3] | inhibition [4] | Activity [5] |
| --- | --- | --- | --- | --- | --- |
| CC(C)=CC1c2c(O)cc(C)cc2Oc2cc(C)cc(O)c21 | 6.3 to 12.5 µM |  |  |  |  |
| CCCCC/C=C/C1=C(CO)[C@@H](O)[C@H]2O[C@@]2(C/C=C(\C)C(=O)O)C1=O | 1.3 µM |  |  |  |  |
| CC(C)=C[C@H]1c2c(O)cc(C)cc2Oc2cc(C)c(C(=O)O)c(O)c21 | 0.3 µM | Active | Active | Active | Non-Toxic |
